*1 amine or outer side, *2 acyl side, *3 side chain or, on linkers, in order; H or OH if unused. Where a SMILES comes first, the peptide text is derived from it. [ ]: non-standard residue; d: D form. X1 = CC(C)C[C@H](N[*:1])[C@@H](O)C[C@H](C(=O)[*:2])C(C)C

The target in this experiment is Beta-secretase 1 (Homo sapiens, UniProt P56817).
Beta-secretase 1, sequence (P56817 whole entry): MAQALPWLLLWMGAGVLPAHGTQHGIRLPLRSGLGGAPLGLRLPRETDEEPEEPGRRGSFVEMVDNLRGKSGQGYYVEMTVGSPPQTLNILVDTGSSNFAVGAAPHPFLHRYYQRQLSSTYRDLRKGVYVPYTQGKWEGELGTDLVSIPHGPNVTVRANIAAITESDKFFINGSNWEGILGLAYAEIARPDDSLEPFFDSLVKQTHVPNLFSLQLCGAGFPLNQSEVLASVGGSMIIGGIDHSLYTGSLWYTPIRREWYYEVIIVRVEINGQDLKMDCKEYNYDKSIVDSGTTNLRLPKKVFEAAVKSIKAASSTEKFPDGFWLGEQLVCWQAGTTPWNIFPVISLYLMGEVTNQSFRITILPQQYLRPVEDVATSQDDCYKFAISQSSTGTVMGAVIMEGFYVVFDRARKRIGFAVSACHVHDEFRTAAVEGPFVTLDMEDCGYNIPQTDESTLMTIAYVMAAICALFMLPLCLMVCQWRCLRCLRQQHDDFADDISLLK

`CC(C)C[C@H](NC(=O)[C@H](CC(N)=O)NC(=O)[C@@H](NC(=O)[C@@H](N)CCC(=O)O)C(C)C)[C@@H](O)C[C@H](C(=O)N[C@@H](C)C(=O)N[C@@H](CCC(=O)O)C(=O)N[C@@H](Cc1ccccc1)C(=O)O)C(C)C` (H-EVN[X1]AEF-OH): the IC50 (commonly the point on the concentration scale where inhibition reaches its midpoint) was 165 nM.
In turn, `CCC(C)[C@H](NC(=O)[C@@H](N)CCC(N)=O)C(=O)N[C@@H](CC(=O)O)C(=O)N[C@@H](CC(C)C)[C@@H](O)C[C@@H](C)C(=O)N[C@@H](C)C(=O)N[C@@H](CCC(=O)O)C(=O)N[C@@H](Cc1ccccc1)C(=O)O` (single isomer, unassigned) yielded a 50% inhibitory concentration (IC50) of 45.5 nM.
